Assay results taken from patent US7288273B1, “Gallotannins and ellagitannins as regulators of cytokine release” (The Penn State Research Foundation, priority 2000, dated 2007).

Key:
[1] = tested on: LPS induced TNF-α secretion from h-PBMC's; assay: Inhibition of LPS induced TNF-α secretion from h-PBMC's; assay type: cell-based, human; conditions: for TNF-α secreted in the presence of LPS and 17c-20c: compound 10 μg/mL added after 45 minutes, h-PBMC's 3rd subject; for TNF-α secreted in the presence of LPS and 17c-20c / TNF-α secreted in the presence of LPS and 18c-20c / TNF-α secreted in the presence of LPS and 19c / 20c: ± SD; for TNF-α secreted in the presence of LPS and 18c-20c / TNF-α secreted in the presence of LPS and 19c / 20c: 4th subject; for TNF-α secreted in the presence of LPS and 19c / 20c: 8 h incubation
Method: In the second study, the ability of compounds 17c-20c to inhibit LPS induced TNF-α production in h-PBMC's was investigated using four assays. The first experiment was a kinetics run in which the h-PBMC's were initially incubated with a fixed concentration of LPS (5 μg/mL) for 45 minutes. This incubation period was followed by addition of a fixed concentration (10 μg/mL) of compounds 17c-20c. The cells were harvested at varying intervals of time. […] The optimal time was determined by comparing the amount of TNF-α secreted by LPS alone to the amount of TNF-α secreted by LPS and substrate at each time point.
The second assay determined the minimum amount of substrate required for inhibition. LPS (10 μg/mL) was incubated with h-PBMC's for 45 minutes followed by addition of 17c-20c at varying concentrations. The cell culture supernatant was harvested after 8 hours. The inherent variability in using cells from different subjects, or in the day of assay, made it difficult to compare overall effectiveness of inhibitors. Therefore, to more easily identify the concentration at which maximum inhibition occurs for a given compound, the TNF-α secretion was normalized by calculating a percent of maximum secretion value (based on LPS alone) (FIG. 13). […] The optimal concentration for inhibition varied between substrates, but the general dose response trend was the same. Overall, the maximum inhibition was 45% for 18c and 20c, and 25% for 19c.
The third assay investigated the ability of 17c, 18c, and 20c to inhibit LPS induced TNF-α secretion using a smaller dosage of LPS (5 μg/mL) (FIG. 14). Again, the response was dose dependent. The maximum inhibition was 45% for 17c and 20c, and 35% for 18c.
In the fourth assay the varying concentrations of substrates 17c-20c and LPS were added at the same time to determine the effect of addition sequence on the inhibition of TNF-α secretion (FIG. 15). The addition time seemed to make a difference in the overall dose response trend. However, maximum inhibition was the same as when the compounds were added 45 minutes after LPS addition (about 40% for each compound).
Finally, in the last study, analogs 19c and 20c were again tested for inhibition LPS induced TNF-α secretion (FIG. 17). In this assay a smaller dose of LPS was used to determine if inhibition was greater when much lower doses of LPS were present. The substrates were added 45 minutes after LPS addition and the cells were harvested after 8 hours. It doesn't appear as though the substrates are better inhibitors when smaller amounts of LPS are used, again perhaps reflecting receptor saturation with LPS at this dosage.

[2] = tested on: IL-1β secretion from h-PBMC's; assay: IL-1β release from h-PBMC's, ELISA; assay type: cell-based, human; conditions: for IL-1β secreted in the presence of 17c-20c: h-PBMC's 2nd subject, ± SD
Method: Authentic samples of agrimoniin and coriariin A were supplied by Professor Yoshida (Okayama University, Japan). Dimeric gallotannin (analog of coriariin A) and β-D-PGG were synthesized as described. LPS (E. coli 055:B5 phenol extract, MW range 50-100 KD). Ficoll-Histopaque (ρ=1.077 g/mL), Fetal Bovine Serum, sterile, hybridoma tested (FCS), gentamicin 10 mg/mL. L-glutamine, 200 mM. Dextran B-512 Leuconostoc Av M.W. 580000, and Trypan Blue stain were purchased from Sigma. Hanks Buffer Saline Solution 1×, with phenol red, mediatech (HBSS) and RPMI 1640 1×, mediatech were purchased from Fisher Scientific, Human IL-1β and TNF-α Enzyme Linked ImmunoSorbent Assay (ELISA) kits were purchased from R and D Systems, Minneapolis, Minn. Fresh heparinized blood was obtained from health human subjects (ages 20-34).
Dose-Response Data: General Procedure. H-PBMC's were isolated by reported procedures (10. 18). The cells counted and the viability was determined by Trypan Blue exclusion (typically, viability exceeded 95%). The concentration of the cells in the 0.5 mL wells was adjusted to 1×10^6 cells/well by diluting with the required amount of RPMI.
The appropriate amount of a tannin (or LPS) stock solution in HBSS was added to each well to furnish the concentration values reported in the Figures. […] The culture plates were incubated in a 5% CO2, 37° C. humidified incubator for the indicated time. At the end of the time interval, 450 μL of the culture supernatant from each well was harvested, after centrifugation at 400 g, 25° C., 10 min. with brake, and stored at −78° C. pending ELISA analysis for the cytokine(s). The ELISA assays were conducted per the manufacturer's instructions using standard calibration curves to calculate cytokine concentration from observed absorbance readings. The cytokine values reported are averages of three runs±SE.
The dimeric antitumor ellagitannins coriariin A and agrimoniin, the monomeric gallotannin β-D-pentagalloylglucose (β-D-PGG) and the dimeric gallotannin of this invention were all examined in this study. The dimeric gallotannin is an analog of coriariin A and is identical to the parent ellagitannin except that the galloyl rings at O(4) and O(6) are not joined in a hexahydroxydiphenoyl (HHDP) linkage. h-PBMC's were incubated with the compound under investigation for the indicated length of time and the amounts of both IL-1β and, independently, TNF-α, present in the culture supernatants was determined using commercially available ELISA kits. In each case, LPS was used as a positive control while untreated cells were reserved as negative controls.
In the third study, compounds 17c-20c were examined for their ability to induce secretion of IL-1β from h-PBMC's (FIG. 16). Recall from the introduction that the cytokine IL-1β is also released in an LPS-stimulated septic shock response. The compounds that cause very little secretion of IL-1β or none at all will be the optimal compounds for potential septic shock therapeutics because they will be less likely themselves to induce a septic shock response.

[3] = LPS 10 μg/mL, substrate added after 45 minutes, 8 hours
[4] = compound 0.6 μM added 45 minutes after LPS 10 μg/mL, 8 hours

Structure (SMILES): O=C(OC[C@H]1O[C@@H](OC(=O)c2cccc(C(=O)O[C@@H]3O[C@H](COC(=O)c4cc(O)c(O)c(O)c4)[C@@H](OC(=O)c4cc(O)c(O)c(O)c4)[C@H](OC(=O)c4cc(O)c(O)c(O)c4)[C@H]3OC(=O)c3cc(O)c(O)c(O)c3)c2)[C@H](OC(=O)c2cc(O)c(O)c(O)c2)[C@@H](OC(=O)c2cc(O)c(O)c(O)c2)[C@@H]1OC(=O)c1cc(O)c(O)c(O)c1)c1cc(O)c(O)c(O)c1 [Compound 18c, 1,1′-O-2,2′,3,3′,4,4′,6,6′-Tetrakis(3,4,5-trihydroxybenzoyl)-β,β′-D-glucopyranosylisophthalate]
- TNF-α secreted in the presence of LPS and 17c-20c ([1]; LPS 5 μg/mL, time 1 h): 594.6 ± 93.2 pg/mL
- TNF-α secreted in the presence of LPS and 17c-20c ([1]; LPS 5 μg/mL, time 4 h): 1523.3 ± 472.8 pg/mL
- TNF-α secreted in the presence of LPS and 17c-20c ([1]; LPS 5 μg/mL, time 8 h): 2829.3 ± 52.6 pg/mL
- TNF-α secreted in the presence of LPS and 17c-20c ([1]; LPS 5 μg/mL, time 12 h): 2448.1 ± 43.6 pg/mL
- TNF-α secreted in the presence of LPS and 17c-20c ([1]; LPS 5 μg/mL, time 16 h): 3956.3 ± 524.5 pg/mL
- TNF-α secreted in the presence of LPS and 17c-20c ([1]; LPS 5 μg/mL, time 24 h): 2002.1 ± 95.1 pg/mL
- maximum inhibition of LPS induced TNF-α secretion ([1]; LPS 5 μg/mL, 3rd subject): 35%
- maximum inhibition of LPS induced TNF-α secretion [1, 3]: 45%
- TNF-α secreted in the presence of LPS and 18c-20c [1, 4]: 69.0 ± 4.9 % max. response
- TNF-α secreted in the presence of LPS and 18c-20c ([1]; compound 2.9 μM added 45 minutes after LPS 10 μg/mL, 8 hours): 71.9 ± 15.2 % max. response
- TNF-α secreted in the presence of LPS and 18c-20c ([1]; compound 5.9 μM added 45 minutes after LPS 10 μg/mL, 8 hours): 59.5 ± 9.5 % max. response
- TNF-α secreted in the presence of LPS and 18c-20c ([1]; compound 11.7 μM added 45 minutes after LPS 10 μg/mL, 8 hours): 54.4 ± 15.4 % max. response
- TNF-α secreted in the presence of LPS and 18c-20c ([1]; compound 23.5 μM added 45 minutes after LPS 10 μg/mL, 8 hours): 60.6 ± 9.9 % max. response
- IL-1β secreted in the presence of 17c-20c ([2]; compound 0.6 μM): 0 pg/mL
- IL-1β secreted in the presence of 17c-20c ([2]; compound 2.9 μM): 4.7 ± 8.1 pg/mL
- IL-1β secreted in the presence of 17c-20c ([2]; compound 5.9 μM): 3.2 ± 5.5 pg/mL
- IL-1β secreted in the presence of 17c-20c ([2]; compound 11.8 μM): 34.1 ± 48.2 pg/mL
- IL-1β secreted in the presence of 17c-20c ([2]; compound 17.6 μM): 1266.0 ± 78.3 pg/mL
- IL-1β secreted in the presence of 17c-20c ([2]; compound 23.5 μM): 631.2 ± 94.4 pg/mL
- IL-1β secreted in the presence of 17c-20c ([2]; compound 29.4 μM): 2113.4 ± 393.0 pg/mL

Structure (SMILES): O=C(OC[C@H]1O[C@@H](OC(=O)c2ccc(-c3ccc(C(=O)O[C@@H]4O[C@H](COC(=O)c5cc(O)c(O)c(O)c5)[C@@H](OC(=O)c5cc(O)c(O)c(O)c5)[C@H](OC(=O)c5cc(O)c(O)c(O)c5)[C@H]4OC(=O)c4cc(O)c(O)c(O)c4)cc3)cc2)[C@H](OC(=O)c2cc(O)c(O)c(O)c2)[C@@H](OC(=O)c2cc(O)c(O)c(O)c2)[C@@H]1OC(=O)c1cc(O)c(O)c(O)c1)c1cc(O)c(O)c(O)c1 [Compound 19c, 1,1′-O-2.2′,3,3′,4,4′,6,6′-Tetrakis(3,4,5-trihyroxybenzoyl)-β,β′-D,D′-glucopyranosylbiphenyl-4.4′-diester]
- TNF-α secreted in the presence of LPS and 17c-20c ([1]; LPS 5 μg/mL, time 1 h): 328.2 ± 61.5 pg/mL
- TNF-α secreted in the presence of LPS and 17c-20c ([1]; LPS 5 μg/mL, time 4 h): 1880.0 ± 20.1 pg/mL
- TNF-α secreted in the presence of LPS and 17c-20c ([1]; LPS 5 μg/mL, time 8 h): 1921.5 ± 399.8 pg/mL
- TNF-α secreted in the presence of LPS and 17c-20c ([1]; LPS 5 μg/mL, time 12 h): 2229.3 ± 353.1 pg/mL
- TNF-α secreted in the presence of LPS and 17c-20c ([1]; LPS 5 μg/mL, time 16 h): 2561.2 ± 718.8 pg/mL
- TNF-α secreted in the presence of LPS and 17c-20c ([1]; LPS 5 μg/mL, time 24 h): 2146.9 ± 69.3 pg/mL
- maximum inhibition of LPS induced TNF-α secretion [1, 3]: 25%
- TNF-α secreted in the presence of LPS and 19c / 20c ([1]; compound 0.6 μM added 45 minutes after LPS 1 μg/mL): 85.1 ± 10.3 % max. response
- TNF-α secreted in the presence of LPS and 18c-20c [1, 4]: 114.3 ± 11.9 % max. response
- TNF-α secreted in the presence of LPS and 19c / 20c ([1]; compound 1.7 μM added 45 minutes after LPS 1 μg/mL): 78.3 ± 9.1 % max. response
- TNF-α secreted in the presence of LPS and 18c-20c ([1]; compound 2.8 μM added 45 minutes after LPS 10 μg/mL, 8 hours): 83.5 ± 26.1 % max. response
- TNF-α secreted in the presence of LPS and 19c / 20c ([1]; compound 3.4 μM added 45 minutes after LPS 1 μg/mL): 81.8 ± 15.9 % max. response
- TNF-α secreted in the presence of LPS and 19c / 20c ([1]; compound 5.6 μM added 45 minutes after LPS 1 μg/mL): 57.5 ± 14.1 % max. response
- TNF-α secreted in the presence of LPS and 18c-20c ([1]; compound 5.6 μM added 45 minutes after LPS 10 μg/mL, 8 hours): 79.4 ± 15.1 % max. response
- TNF-α secreted in the presence of LPS and 19c / 20c ([1]; compound 11.2 μM added 45 minutes after LPS 1 μg/mL): 57.4 ± 7.3 % max. response
- TNF-α secreted in the presence of LPS and 18c-20c ([1]; compound 11.2 μM added 45 minutes after LPS 10 μg/mL, 8 hours): 92.4 ± 21.4 % max. response
- TNF-α secreted in the presence of LPS and 18c-20c ([1]; compound 22.4 μM added 45 minutes after LPS 10 μg/mL, 8 hours): 73.0 ± 12.6 % max. response
- IL-1β secreted in the presence of 17c-20c ([2]; compound 0.6 μM): 54.2 ± 57.5 pg/mL
- IL-1β secreted in the presence of 17c-20c ([2]; compound 2.8 μM): 60.9 ± 58.6 pg/mL
- IL-1β secreted in the presence of 17c-20c ([2]; compound 5.6 μM): 14.5 ± 25.2 pg/mL
- IL-1β secreted in the presence of 17c-20c ([2]; compound 11.2 μM): 9.4 ± 7.0 pg/mL
- IL-1β secreted in the presence of 17c-20c ([2]; compound 16.8 μM): 41.3 ± 14.8 pg/mL
- IL-1β secreted in the presence of 17c-20c ([2]; compound 22.5 μM): 23.2 ± 18.0 pg/mL
- IL-1β secreted in the presence of 17c-20c ([2]; compound 28.1 μM): 41.3 ± 6.0 pg/mL
- IL-1β secretion from h-PBMC's, in words ([2]; h-PBMC's): lowest amounts of IL-1β production
